Measurements published in patent publication US4331659A, “Antibiotic U-62,162 and process of making” (The Upjohn Company, priority 1980, dated 1982).
In brackets after ≈: the same amount, converted by molar mass.

Tests used:
Enterococcus sp. = assay: standard agar dilution assay (MIC); assay type: cell-based; conditions: UC 701; 24 hours, 28° to 37° C.
Procedure: (§1) The antibacterial assay is a standard agar dilution assay. The MIC is determined by standard methods using two-fold dilutions of the antibiotic in Brain Heart Infusion Broth (Difco Lab., Detroit, Michigan). The inocula are overnight cultures of the test organisms, diluted so that the final population contains approximately 10^5 cells/ml. The solutions are incubated at 28° to 37° C. for 24 hours. The lowest antibiotic concentration which allows no growth=MIC or minimum inhibitory concentration.

Escherichia coli = assay: standard agar dilution assay (MIC); assay type: cell-based; conditions: UC 45; 24 hours, 28° to 37° C.
Procedure: as §1

Klebsiella pneumoniae = assay: standard agar dilution assay (MIC); assay type: cell-based; conditions: UC 58; 24 hours, 28° to 37° C.
Procedure: as §1

Pseudomonas aeruginosa = assay: standard agar dilution assay (MIC); assay type: cell-based; conditions: UC 95; 24 hours, 28° to 37° C.
Procedure: as §1

[1] = system: Salmonella schottmuelleri; assay: standard agar dilution assay (MIC); assay type: cell-based; conditions: UC 126; 24 hours, 28° to 37° C.
Procedure: as §1

Staphylococcus aureus = assay: standard agar dilution assay (MIC); assay type: cell-based; conditions: 24 hours, 28° to 37° C.
Procedure: as §1

Streptococcus faecalis = assay: standard agar dilution assay (MIC); assay type: cell-based; conditions: UC 694; 24 hours, 28° to 37° C.
Procedure: as §1

Streptococcus pneumoniae = assay: standard agar dilution assay (MIC); assay type: cell-based; conditions: UC 41; 24 hours, 28° to 37° C.
Procedure: as §1

Streptococcus pyogenes = assay: standard agar dilution assay (MIC); assay type: cell-based; conditions: UC 152; 24 hours, 28° to 37° C.
Procedure: as §1

H. influenzae = assay: standard agar-dilution method, MIC against ampicillin-resistant and ampicillin-susceptible H. influenzae type b; assay type: cell-based
Procedure: Antibiotic U-62,162 was also tested for activity against a group of ampicillin-resistant and ampicillin-susceptible H. influenzae type b.
A solution of the compound was prepared in dimethylsulfoxide (DMSO), diluted in Brain Heart Infusion Broth (BHIB) and MIC's were determined using the standard agar-dilution method.

Gram-positive bacteria = assay: antibacterial activity against Gram-positive bacteria; assay type: cell-based
Procedure: as §1

S. aureus 6029 = assay: disc plate assay (zone of inhibition, BU); assay type: cell-based; conditions: essentially pure crystalline, after countercurrent distribution
Procedure: Buffered (pH 5.8) silica gel is prepared by treating 1 kg of silica gel 60 with a solution of 54.4 g of KH2 PO4 in 800 ml of water. This is dried 16 hours at 110°. A 1 inch (diameter) column containing 60 g of buffered (pH 5.8) silica gel is poured in a slurry with chloroform. To this is added 250 mg of crude U-62,162, prepared as described above, in chloroform. The column is developed first with 120 ml of CHCl3, then with CHCl3 :MeOH (94:6 v/v). Fractions of 5 ml each are collected beginning when the mixed solvent is introduced. They are assayed by plating 12 mm discs containing […] aliquots on S. aureus 6029 trays. Fractions 55-65, containing most of the activity, are pooled and evaporated, 90 mg, […], 17,200 total BU.
A preparation of antibiotic U-62,162, as described above, (3 g) is distributed for 300 transfers in the two-phase solvent system afforded by ethyl acetate:ethanol (95%):cyclohexane:water (2:3:3:2 v/v). Phase volumes are 10 ml each. Fractions 120-150 are combined and the residue from these after evaporation affords essentially pure crystalline antibiotic U-62,162, 1 g, assaying 800-1500 BU/mg against S. aureus 6029. A BU is the amount of material distributed on a 12 mm disc which will give a 20 mm zone of inhibition.

Solubilities = assay type: physicochemical; conditions: lower alcohols (1-4 carbons), esters, ethers, aromatic hydrocarbons, dimethylformamide, dimethylsulfoxide, lower ketones (3-6 carbons)
stability to pH = assay type: physicochemical; conditions: pH 8.5 and higher

CC(C)=CC(C)CC(C)/C=C/C(=O)NC1=CC(O)(CCCCC(=O)O)C2OC2C1=O (centres unmarked) [U-62,162]
Minimum Inhibitory Concentration (Enterococcus sp.): 7.8 µg/mL | Minimum Inhibitory Concentration (Escherichia coli): > 1000 µg/mL | Minimum Inhibitory Concentration (Klebsiella pneumoniae): > 1000 µg/mL | Minimum Inhibitory Concentration (Pseudomonas aeruginosa): > 1000 µg/mL | Minimum Inhibitory Concentration [1]: > 1000 µg/mL | Minimum Inhibitory Concentration (Staphylococcus aureus; UC 76): 1.0 µg/mL | Minimum Inhibitory Concentration (Staphylococcus aureus; UC 6685): 1.0 µg/mL | Minimum Inhibitory Concentration (Staphylococcus aureus; UC 6690): 1.0 µg/mL | Minimum Inhibitory Concentration (Streptococcus faecalis): 7.8 µg/mL | Minimum Inhibitory Concentration (Streptococcus pneumoniae): 1.0 µg/mL | Minimum Inhibitory Concentration (Streptococcus pyogenes): 125 µg/mL | MIC (H. influenzae; UC 6482, ampicillin susceptible): 62.5 µg/mL (≈ 149 µM) | MIC (H. influenzae; UC 6483, ampicillin resistant): 31.25 µg/mL (≈ 74.5 µM) | MIC (H. influenzae; UC 6484, ampicillin resistant): 31.25 µg/mL (≈ 74.5 µM) | MIC (H. influenzae; UC 6485, ampicillin susceptible): 31.25 µg/mL (≈ 74.5 µM) | MIC (H. influenzae; UC 6486, ampicillin susceptible): 31.25 µg/mL (≈ 74.5 µM) | MIC (H. influenzae; UC 6582, ampicillin resistant): 31.25 µg/mL (≈ 74.5 µM) | MIC (H. influenzae; UC 6583, ampicillin resistant): 31.25 µg/mL (≈ 74.5 µM) | MIC (H. influenzae; UC 6585, ampicillin resistant): 31.25 µg/mL (≈ 74.5 µM) | MIC (H. influenzae; UC 6586, ampicillin resistant): 31.25 µg/mL (≈ 74.5 µM) | MIC (H. influenzae; UC 6587, ampicillin resistant): 31.25 µg/mL (≈ 74.5 µM) | MIC (H. influenzae; UC 6589, ampicillin resistant): 31.25 µg/mL (≈ 74.5 µM) | MIC (H. influenzae; UC 6592, ampicillin resistant): 15.6 µg/mL (≈ 37.2 µM) | MIC (H. influenzae; UC 6595, ampicillin resistant): 31.25 µg/mL (≈ 74.5 µM) | MIC (H. influenzae; UC 6596, ampicillin resistant): 31.25 µg/mL (≈ 74.5 µM) | MIC (H. influenzae; UC 6597, ampicillin susceptible): 31.25 µg/mL (≈ 74.5 µM) | MIC (H. influenzae; UC 6598, ampicillin susceptible): 31.25 µg/mL (≈ 74.5 µM) | activity against H. influenzae type b cultures (in words) (H. influenzae; all of the cultures tested): moderate activity | activity against various Gram-positive bacteria (in words) (Gram-positive bacteria): active | potency (BU; amount on a 12 mm disc which will give a 20 mm zone of inhibition) (S. aureus 6029): 800-1500 BU/mg | Solubilities (Solubilities): soluble | stability (stability to pH): unstable
